Here are results for ten compounds from ChEMBL document CHEMBL1147357, “Antihypertensive Activity of Corilagin and Chebulinic Acid, Tannins from Lumnitzera, racemosa” (1993).

The structures appear in SMILES notation. Active and inactive are the calls of the source. No cut-off for these calls is given here.

Assay [1] concerns Rattus norvegicus. As to the kind of experiment: Induction of hypotensive effect in conscious normotensive WKY rat. The format is functional, organism-based.
The subject of assay [2] is Rattus norvegicus. As to the kind of experiment: Antihypertensive activity in conscious SHR rat assessed as maximal change in tail arterial blood pressure at 20 mg/kg, iv measured at 10 mins interval relative to blood pressure obtained at preinjection. In kind it is functional, Artery.
For assay [3], the system named is Rattus norvegicus. The assay is described as follows: Antihypertensive activity in conscious SHR rat assessed as lowering of tail arterial mean blood pressure at 5 mg/kg during 10 to 130 mins by indirect tail-cuff method. The format is functional, organism-based. Also on record: dose 5 mg/kg. The conditions noted are these: Artery.
The subject of assay [4] is Rattus norvegicus. The assay is described as follows: Antihypertensive activity in iv dosed conscious normotensive WKY rat assessed as maximal change in tail arterial blood pressure measured at 10 mins interval by dose-response curve analysis. In kind it is functional. The conditions noted are these: Artery.
The test system of assay [5] is Rattus norvegicus. The assay is described as follows: Antihypertensive activity in iv dosed conscious SHR rat assessed as maximal change in tail arterial blood pressure measured at 10 mins interval by dose-response curve analysis. In kind it is functional. The conditions noted are these: Artery.
Assay [6] concerns Rattus norvegicus. The assay is described as follows: Antihypertensive activity in conscious SHR rat assessed as maximal change in tail arterial blood pressure at 10 mg/kg, iv measured at 10 mins interval relative to blood pressure obtained at preinjection. The format is functional, Artery.
The subject of assay [7] is Rattus norvegicus. As to the kind of experiment: Antihypertensive activity in conscious SHR rat assessed as maximal change in tail arterial blood pressure at 50 mg/kg, iv measured at 10 mins interval relative to blood pressure obtained at preinjection. In kind it is functional, Artery.
Assay [8] has as its system Rattus norvegicus. The assay is described as follows: Antihypertensive activity in conscious SHR rat assessed as maximal change in tail arterial blood pressure at 15 mg/kg, iv measured at 10 mins interval relative to blood pressure obtained at preinjection. In kind it is functional, Artery.
The subject of assay [9] is Rattus norvegicus. As to the kind of experiment: Induction of […] activity in conscious normotensive WKY rat assessed as maximal change in tail arterial blood pressure at 15 mg/kg, iv measured at 10 mins interval relative to blood pressure obtained at preinjection. In kind it is functional, organism-based. Details: dose 15 mg/kg.

For `O=C1OC[C@H]2OC(=O)c3cc(O)c(O)c(O)c3-c3c(O)c(O)c(O)c4c3C(=O)O[C@H]([C@H]3OC(=O)c5c-4c(O)c(O)c(O)c5[C@H]3O)[C@@H]2OC(=O)c2cc(O)c(O)c(O)c2-c2c1cc(O)c(O)c2O` [CASTALAGIN], the result in the assay with Rattus norvegicus [1] and in the assay on Rattus norvegicus [3] was Active. Besides, the Activity was -49.6 mmHg in the assay with Rattus norvegicus [2] and “Dose-dependent effect” in the assay with Rattus norvegicus [5]. Moreover, the ED50 in the assay with Rattus norvegicus [4] stood at 6.4 mg/kg; in the assay with Rattus norvegicus [5] it was 6.3 mg/kg.

As for `O=C(O)C[C@H]1C(=O)O[C@H]2[C@H](OC(=O)c3cc(O)c(O)c(O)c3)[C@@H](OC(=O)c3cc(O)c(O)c4c3[C@H]1[C@H](O)C(=O)O4)[C@H](OC(=O)c1cc(O)c(O)c(O)c1)O[C@@H]2COC(=O)c1cc(O)c(O)c(O)c1` [CHEBULINIC ACID], the outcome with Rattus norvegicus [1] and in the assay with Rattus norvegicus [3] was Active. Besides, the values for the Activity in the assay with Rattus norvegicus [6] and in the assay on Rattus norvegicus [5] were -76.9 mmHg and “Dose-dependent effect”, respectively. In addition, the ED50 is 3.4 mg/kg in the assay with Rattus norvegicus [4] and 3.2 mg/kg with Rattus norvegicus [5].

Take `O=C(O[C@@H]1O[C@@H]2COC(=O)c3cc(O)c(O)c(O)c3-c3c(cc(O)c(O)c3O)C(=O)O[C@H]([C@H]1O)[C@@H]2O)c1cc(O)c(O)c(O)c1` [CORILAGIN]: the result in the assay with Rattus norvegicus [1] and in the assay on Rattus norvegicus [3] was Active. Also, the Activity is -52.6 mmHg in the assay on Rattus norvegicus [2] and “Dose-dependent effect” in the assay with Rattus norvegicus [5]. For the same compound, the ED50 in the assay with Rattus norvegicus [4] was 6.5 mg/kg; with Rattus norvegicus [5] it was 6.7 mg/kg.

In the case of `O=C(O)C[C@@H]1C(=O)O[C@H]2[C@@H]3OC(=O)c4cc(O)c(O)c(O)c4-c4c(cc(O)c(O)c4O)C(=O)OC[C@H]2O[C@@H](OC(=O)c2cc(O)c(O)c(O)c2)[C@@H]3OC(=O)c2cc(O)c(O)c3c2[C@H]1[C@H](O)C(=O)O3` [CHEBULAGIC ACID], in the assay on Rattus norvegicus [7], the Activity is recorded as -6.5 mmHg.

As for `O=C1O[C@@H]2[C@@H](OC(=O)c3cc(O)c(O)c(O)c3-c3c1cc(O)c(O)c3O)[C@H](O)[C@@H](CO)O[C@H]2O`, the Activity with Rattus norvegicus [7] is -5.5 mmHg.

Consider `O=C1O[C@@H]2[C@@H](OC(=O)c3cc(O)c(O)c(O)c3-c3c1cc(O)c(O)c3O)[C@H](O)O[C@@H]1COC(=O)c3cc(O)c(O)c(O)c3-c3c(O)c(O)c4oc(=O)c5c(c(O)c(O)c6oc(=O)c3c4c65)-c3c(cc(O)c(O)c3O)C(=O)O[C@@H]21` [PUNICALAGIN], for which the Activity in the assay with Rattus norvegicus [8] is -63.4 mmHg. Also, in the assay with Rattus norvegicus [5], the ED50 is 5.4 mg/kg. For the same compound, in the assay with Rattus norvegicus [9], the outcome was Active.

Take `O=C(OC[C@H]1O[C@@H](OC(=O)c2cc(O)c(O)c(O)c2)[C@H](OC(=O)c2cc(O)c(O)c(O)c2)[C@@H](OC(=O)c2cc(O)c(O)c(O)c2)[C@@H]1O)c1cc(O)c(O)c(O)c1`: the Activity in the assay on Rattus norvegicus [7] is given as 2.3 mmHg.

Consider `O=C(OC[C@H]1O[C@@H](O)[C@H](OC(=O)c2cc(O)c(O)c(O)c2)[C@@H](OC(=O)c2cc(O)c(O)c(O)c2)[C@@H]1OC(=O)c1cc(O)c(O)c(O)c1)c1cc(O)c(O)c(O)c1`, for which the Activity with Rattus norvegicus [7] is listed as -5.2 mmHg.

Regarding `O=C(O[C@@H]1[C@@H](OC(=O)c2cc(O)c(O)c(O)c2)[C@H](O)[C@@H](CO)O[C@H]1O)c1cc(O)c(O)c(O)c1`, the Activity in the assay on Rattus norvegicus [7] is 4.52 mmHg.

`O=C(OC[C@H]1O[C@@H](OC(=O)c2cc(O)c(O)c(O)c2)[C@H](OC(=O)c2cc(O)c(O)c(O)c2)[C@@H](OC(=O)c2cc(O)c(O)c(O)c2)[C@@H]1OC(=O)c1cc(O)c(O)c(O)c1)c1cc(O)c(O)c(O)c1` [PENTAGALLOYL GLUCOSE]: the Activity in the assay on Rattus norvegicus [7] is given as -7.1 mmHg.

For orientation: ED50 means the dose at which the effect has come halfway, by size or by number of responders.
